Results as given in patent publication US5827890A, “Succinamide derivatives, processes for their preparation and their use as gelatinase and collagenase inhibitors” (Celltech Therapeutics Ltd., priority 1993, dated 1998).

Columns and labels:
gelatinase A (72 K form) = test: Pleural cavity assay, oral activity in mice (injected gelatinase A and radiolabelled [14C]-gelatin); assay type: in vivo; conditions: for inhibition (comparative experiment): each compound administered at the same dose (dose not stated)
Experimental: The oral activity of the compounds according to the invention may be determined using the pleural cavity assay described below.
A […] solution of the test compound in an appropriate solvent (e.g. 50% polyethylene glycol (PG) plus a variable proportion of dimethyl sulphoxide (DMSO) (if required) is administered orally. After an interval of up to 24 hrs, 0.4 ml of a mixture of an equal volume (2.2 ml) of the enzyme gelatinase A (72 K form at a concentration of 20 nM) and radiolabelled [^14 C]-gelatin (at an approximate concentration of 10 μM i.e. 500 times molar excess) is injected into the pleural cavity and maintained at […]. After 35 min mice are overdosed with anaesthetic, the contents of the pleural cavity aspirated and the aspirates cleared by centrifugation at 4° C. then diluted to 15% in trichloroacetic acid (TCA) and left overnight at 4° C. The resulting TCA precipitate is then separated by centrifugation and radioactivity in each supernatant measured by scintillation counting. Results are expressed as a % inhibition of enzyme activity calculated by comparing the radioactivity measured for each test compound with a control value obtained by performing the same assay in the absence of a gelatinase inhibitor.
A comparative experiment was carried out using the same procedure and the compound of Example 1 [A] and the amides [B], [C] and [D] (prepared in a similar fashion to the compound of Example 1): [drawing 19]

Gelatinase 72KD = target: T1, Gelatinase 72KD (Homo sapiens, UniProt P08253); test: Enzyme assay to determine Ki values, peptide substrate Dnp-Pro-Leu-Gly-Leu-Trp-Ala-D-Arg-NH2 (gelatinase 72KD); assay type: biochemical; conditions: for Ki: incubated overnight, pH 7.5, true Ki from plot of Ki (app) vs. [S]
T1 sequence (P08253 110-660): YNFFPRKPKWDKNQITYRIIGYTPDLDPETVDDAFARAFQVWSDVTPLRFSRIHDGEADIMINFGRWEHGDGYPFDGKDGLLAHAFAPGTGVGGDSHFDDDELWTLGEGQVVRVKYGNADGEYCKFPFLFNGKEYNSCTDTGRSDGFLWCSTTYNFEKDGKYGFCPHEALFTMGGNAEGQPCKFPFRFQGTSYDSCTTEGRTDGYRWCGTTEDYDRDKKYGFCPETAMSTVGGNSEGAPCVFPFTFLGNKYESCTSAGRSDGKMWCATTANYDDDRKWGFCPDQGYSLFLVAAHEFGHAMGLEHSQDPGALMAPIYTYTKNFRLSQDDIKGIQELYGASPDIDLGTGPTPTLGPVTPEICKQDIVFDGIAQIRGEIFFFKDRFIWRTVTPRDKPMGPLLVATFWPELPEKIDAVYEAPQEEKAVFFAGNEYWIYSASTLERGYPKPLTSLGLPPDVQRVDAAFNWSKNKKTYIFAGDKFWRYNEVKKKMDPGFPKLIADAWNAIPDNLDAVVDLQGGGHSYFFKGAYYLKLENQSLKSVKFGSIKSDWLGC
Experimental: (§1) The activity of the compounds of the invention may be determined as described below.
(§2) All enzyme assays to determine Ki values were performed using the peptide substrate Dnp-Pro-Leu-Gly-Leu-Trp-Ala-D-Arg-NH2. [M. Sharon Stock and Robert D. Gray. JBC 264, 4277-81, 1989). The enzymes cleave at the Gly-Leu bond which can be followed fluorimetrically by measuring the increase in Trp fluorescence emission associated with the removal of the quenching dinitrophenol (Dnp) group.
(§3) Brij 35 at either room temperature or 37° C. depending on the enzyme. The reaction is stopped by adjusting the pH to 4 using 0.1M sodium acetate buffer and the fluorescence read at an excitation wavelength of 280 nm and emission wavelength of 346 nm.
(§4) Ki values can be established using the equation for tight-binding inhibition: [formula] where Vo is the initial rate of reaction in the absence of inhibitor, Vi is the initial rate in the presence of inhibitor, [E] is the total enzyme concentration and [I] the total inhibitor concentration in the reaction mixture.
(§5) For stromelysin and collagenase, Ki (app) was assumed to approximate to the true Ki as [S]<<Km for the substrate hydrolysis. For gelatinase the Ki was determined by performing the analyses at several substrate concentrations. A plot of Ki (app) vs. [S] then gave the true Ki as the value of the y-axis intercept.

Stromelysin-1 = Stromelysin-1 (Homo sapiens, UniProt P08254); test: Enzyme assay to determine Ki values, peptide substrate Dnp-Pro-Leu-Gly-Leu-Trp-Ala-D-Arg-NH2 (stromelysin-1); assay type: biochemical; conditions: incubated overnight, pH 7.5; Ki (app) assumed to approximate true Ki
Chain of Stromelysin-1 (P08254 100-477): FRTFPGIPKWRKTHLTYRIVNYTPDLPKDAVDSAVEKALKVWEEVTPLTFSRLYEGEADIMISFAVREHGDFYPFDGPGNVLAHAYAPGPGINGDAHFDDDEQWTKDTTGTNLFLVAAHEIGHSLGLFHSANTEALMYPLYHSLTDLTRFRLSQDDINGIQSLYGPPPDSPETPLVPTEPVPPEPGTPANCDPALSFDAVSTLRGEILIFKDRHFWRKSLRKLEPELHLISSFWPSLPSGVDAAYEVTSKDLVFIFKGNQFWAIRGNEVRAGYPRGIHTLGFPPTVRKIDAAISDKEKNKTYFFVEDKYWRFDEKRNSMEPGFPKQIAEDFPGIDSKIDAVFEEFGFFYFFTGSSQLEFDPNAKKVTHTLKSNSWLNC
Experimental: as §1, §2, §3, §4, §5

Collagenase = target: T2, Collagenase (Homo sapiens, UniProt P03956); test: Enzyme assay to determine Ki values, peptide substrate Dnp-Pro-Leu-Gly-Leu-Trp-Ala-D-Arg-NH2 (collagenase); assay type: biochemical; conditions: for Ki: incubated overnight, pH 7.5, Ki (app) assumed to approximate true Ki
T2 sequence (P03956 100-469): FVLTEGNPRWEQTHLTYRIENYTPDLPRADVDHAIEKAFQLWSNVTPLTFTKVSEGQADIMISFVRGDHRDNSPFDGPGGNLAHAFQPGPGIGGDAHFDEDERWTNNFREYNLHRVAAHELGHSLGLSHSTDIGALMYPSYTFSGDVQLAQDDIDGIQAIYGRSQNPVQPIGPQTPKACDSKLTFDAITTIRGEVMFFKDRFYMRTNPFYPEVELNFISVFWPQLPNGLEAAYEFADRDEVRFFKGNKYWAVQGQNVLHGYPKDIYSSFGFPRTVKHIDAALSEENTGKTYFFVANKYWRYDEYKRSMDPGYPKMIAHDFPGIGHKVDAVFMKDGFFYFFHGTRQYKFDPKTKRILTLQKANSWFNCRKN
Experimental: as §1, §2, §3, §4, §5

[1] = system: vascularisation of sponge implants; test: Inhibition of angiogenesis: vascularisation of sponge implants in mice, xenon clearance; assay type: in vivo; conditions: oral, twice per day, 100 mg/kg in PG vehicle, beginning 8 h after sponge implantation
Experimental: Compounds were assessed by their ability to inhibit vascularisation of sponge implants in mice. The amount of vascularisation in this model is determined by the rate of clearance of radioactive xenon from the sponge. Compounds in polyethylene glycol (PG) vehicle were orally administered twice per day at a dose of 100 mg/kg, with administration beginning 8 h after sponge implementation.
FIG. 1 illustrates the result of one experiment using the compound of Example 1. For comparative purposes the following compound (Compound [E]) was used: [drawing 20] (prepared as described in International Patent Application No. PCT/GB 94/00896).
The results are expressed in FIG. 1 as a graph of xenon clearance (expressed as a clearance constant) against time.

[2] = relative to the compound of Example 1

SMILES	inhibition (comparative experiment) (gelatinase A (72 K form)) [%]	Ki (Gelatinase 72KD) [nM]	% Inhibition of enzyme activity (gelatinase A (72 K form); at 10 mg/Kg) [%]	Ki (Stromelysin-1) [nM]	Ki (Collagenase) [nM]	also measured
CC(C)[C@H](NC(=O)[C@H](CCCc1ccc(Cl)cc1)CC(=O)NO)C(N)=O [Compound [B], reference compound]	53					
COc1ccc(CCC[C@H](CC(=O)NO)C(=O)N[C@H](C(N)=O)C(C)(C)C)cc1 [Example 4, N^4 -Hydroxy-N^1-(1-(S)-carbamoyl-2.2-dimethylpropyl)-2-(R)-(4-methoxyphenylpropyl)succinamide]		0.023	82			
CC(C)(C)[C@H](NC(=O)[C@H](CCCc1ccccc1)CC(=O)NO)C(N)=O [Example 2, N^4 -Hydroxy-N^1-(1-(S)-carbamoyl-2.2-dimethylpropyl)-2-(R)-(phenylpropyl)succinamide]			73			
CCNC(=O)[C@@H](NC(=O)[C@H](CCCc1ccc(Cl)cc1)CC(=O)NO)C(C)(C)C [Compound [D], reference compound]	11					
CNC(=O)[C@@H](NC(=O)[C@H](CCCc1ccc(Cl)cc1)CC(=O)NO)C(C)(C)C [Example 5, N^4 -Hydroxy-N^1-(1-(S)-methylaminocarbonyl-2.2-dimethylpropyl)-2-(R)-(4-chlorophenylpropyl)succinamide]			64	2.64	22.5	
CNC(=O)[C@@H](NC(=O)[C@@H](CC(=O)NO)CC(C)C)C(C)(C)SC [Compound [E], reference compound]						fold less potent on gelatinase than the compound of Example 1 (Gelatinase 72KD; [2]): approximately 40 fold; fold more potent on collagenase than the compound of Example 1 (Collagenase; [2]): approximately 40 fold
CC(C)(C)[C@H](NC(=O)[C@H](CCCc1ccc(F)cc1)CC(=O)NO)C(N)=O [Example 6, N^4 -Hydroxy-N^1-(1-(S)-carbamoyl-2.2-dimethylpropyl)-2-(R)-(4-fluorophenylpropyl)succinamide]		0.21	76			
CC(C)(C)[C@H](NC(=O)[C@H](CCCc1ccc(Cl)cc1)CC(=O)NO)C(N)=O [Example 1, N^4 Hydroxy-N^1-(1-(S)-carbamoyl-2.2-dimethylpropyl)-2-(R)-4(chlorophenylpropyl)succinamide]	100	0.07	100	10.9	122	inhibition of vascularisation / xenon clearance (FIG. 1) [1]: substantial inhibition of vascularisation as seen by the marked inhibition of xenon clearance, which was much greater than the inhibition achieved by the non-specific metalloproteinase inhibitor Compound [E]
Cc1ccc(CCC[C@H](CC(=O)NO)C(=O)N[C@H](C(N)=O)C(C)(C)C)cc1 [Example 3, N^4 Hydroxy-N^1-(1-(S)-carbamoyl-2.2-dimethylpropyl)-2-(R)-(4-methylphenylpropyl)succinamide]		0.042	95	10.2	491	
CNC(=O)[C@@H](NC(=O)[C@H](CCCc1ccc(C)cc1)CC(=O)NO)C(C)(C)C [Example 7, N^4 -Hydroxy-N^1-(1-(S)-methylaminocarbonyl-2.2-dimethylpropyl)-2-(R)-(4-methylphenylpropyl)succinamide]		0.023		9.91	84.4	% Inhibition of enzyme activity (gelatinase A (72 K form); at 80 mg/Kg): 100%
CC(C)C[C@H](NC(=O)[C@H](CCCc1ccc(Cl)cc1)CC(=O)NO)C(N)=O [Compound [C], reference compound]	25					
